# From patent publication US20190365907A1, “ZWITTERIONIC POLYMER-INSULIN COMPOSITIONS AND RELATED METHODS” (Wayne State University, priority 2017, published 2019)
# Tests used:
# [1] = system: streptozotocin (STZ) induced diabetic mice; assay: Blood glucose lowering after tail vein injection in STZ-induced diabetic mice; assay type: in vivo
# Experimental: The mice were fasted during the glucose testing period.
# The injection dose for the three samples were readily kept the same at 10 nmol/Kg insulin or its conjugate (for native insulin dose, 10 nmol/kg=1.5 IU/kg), by accurately controlling the feeding molar content of insulin for the conjugation reaction.
# The in vivo bioavailability of insulin samples was evaluated by quantifying the area above the curve (AAC) of relative intensity of blood glucose concentration in FIG. 4B.
# [2] = Circular dichroism secondary structure of insulin samples; assay type: physicochemical; conditions: far-UV CD, 0.2 mg/mL in 0.2 M pH 8.2 PBS buffer, CDSSTR analysis
# Experimental: CD spectra were collected by using a Chirascan spectrophotometer from Applied Photophysics at 25° C. Insulin samples were dissolved in 0.2 M PBS buffer at 0.2 mg/ml. The […] CD spectra were measured from 200 to 250 nm with the light-path length of 1 mm. The scanning speed of CD spectra measurement was set at 200 nm/min. Each spectrum was the average of three scans to increase the signal-to-noise ratio of the measurements. The secondary structure proportions for insulin and its conjugates were analyzed using CDSSTR software.
# The effect of polymer conjugation on the structure change of insulin was evaluated. Far-ultraviolet CD spectra were collected to quantify the effect of the zwitterionic polymer conjugation on insulin's secondary structure.
# insulin receptor = biological target: T1, insulin receptor (Cricetulus griseus, UniProt A0A8C2MAM4); assay: In vitro bioactivity assay of insulin (phosphorylated AKT at Ser473 in CHO-M 1 cells); assay type: cell-based; conditions: 10 μg/mL, 45 minutes, FIG. 4C
# T1 construct: host or cells: CHO-M1 cells
# T1 sequence (A0A8C2MAM4 28-1372): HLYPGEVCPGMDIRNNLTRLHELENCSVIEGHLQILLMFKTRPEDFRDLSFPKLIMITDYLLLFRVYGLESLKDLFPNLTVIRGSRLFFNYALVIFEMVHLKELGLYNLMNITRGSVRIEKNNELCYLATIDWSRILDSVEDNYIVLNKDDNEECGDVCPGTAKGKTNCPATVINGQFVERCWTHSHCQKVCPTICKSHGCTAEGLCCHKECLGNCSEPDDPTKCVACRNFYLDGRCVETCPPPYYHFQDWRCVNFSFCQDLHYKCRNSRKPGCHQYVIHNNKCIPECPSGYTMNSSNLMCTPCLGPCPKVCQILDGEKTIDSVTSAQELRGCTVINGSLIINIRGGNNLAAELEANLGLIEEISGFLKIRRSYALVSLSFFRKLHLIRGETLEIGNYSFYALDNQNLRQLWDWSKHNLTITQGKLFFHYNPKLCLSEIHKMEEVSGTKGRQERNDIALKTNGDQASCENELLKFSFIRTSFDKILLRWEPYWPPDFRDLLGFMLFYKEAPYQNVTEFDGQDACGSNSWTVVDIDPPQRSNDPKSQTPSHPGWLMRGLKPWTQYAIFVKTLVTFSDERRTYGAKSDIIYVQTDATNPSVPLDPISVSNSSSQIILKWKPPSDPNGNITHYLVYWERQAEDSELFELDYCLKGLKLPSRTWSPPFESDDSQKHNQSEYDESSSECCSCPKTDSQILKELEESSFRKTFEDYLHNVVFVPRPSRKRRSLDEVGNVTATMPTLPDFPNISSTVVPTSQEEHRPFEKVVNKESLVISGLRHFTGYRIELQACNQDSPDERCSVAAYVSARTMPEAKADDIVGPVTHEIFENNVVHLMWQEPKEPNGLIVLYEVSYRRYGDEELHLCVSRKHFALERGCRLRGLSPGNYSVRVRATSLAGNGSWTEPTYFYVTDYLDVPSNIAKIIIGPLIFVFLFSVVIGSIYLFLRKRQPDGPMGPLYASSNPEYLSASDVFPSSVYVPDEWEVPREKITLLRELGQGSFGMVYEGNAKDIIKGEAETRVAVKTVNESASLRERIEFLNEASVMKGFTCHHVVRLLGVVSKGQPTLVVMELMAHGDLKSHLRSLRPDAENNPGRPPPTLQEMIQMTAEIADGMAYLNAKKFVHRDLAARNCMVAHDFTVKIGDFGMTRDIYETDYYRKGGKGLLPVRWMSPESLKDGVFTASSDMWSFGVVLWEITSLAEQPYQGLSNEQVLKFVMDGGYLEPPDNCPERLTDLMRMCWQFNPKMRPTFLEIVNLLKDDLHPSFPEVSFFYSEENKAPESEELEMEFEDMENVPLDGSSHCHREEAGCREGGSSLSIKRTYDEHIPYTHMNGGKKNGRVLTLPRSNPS
# Experimental: About 25,000 CHO-M 1 cells/well (ATCC) were seeded in a 96-well tissue culture treated plate and incubate for 24 h before being cultured in serum-free medium. […] Then cells were lysed and a commercially available kit (Cisbio) was used to assay phosphorylated AKT at Ser473. The fluorescence emission at 665 and 620 nm was measured on a HTRF reader (BioTek, USA).
# The relative activity was presented as the percentage relative to native insulin±standard deviation (n=6) * p<0.05, ** p<0.01, ns=not significant.
# [3] = Hydrodynamic size by dynamic light scattering (DLS); assay type: physicochemical; conditions: pH 8.4 0.2M HEPES buffer, 25° C.; average±standard deviation, n=3
# Experimental: The hydrodynamic sizes of the insulin and its conjugate samples were collected by a DLS method using a Malvern Nano-ZS Zetasizer at 25° C.
# The hydrodynamic size of PCB-conjugated insulin was measured by a dynamic light scattering (DLS) method by using a Malvern Nano-ZS Zetasizer.
# [4] = non-purified (rough) products, 10 nmol/Kg intravenous, FIG. 4A
# [5] = purified conjugates, 10 nmol/kg intravenous, FIG. 4B
Substance,"blood glucose lowering ability compared with native insulin [1, 4]","blood glucose lowering ability compared with native insulin [1, 5]",Random coil (secondary structure proportion) [2],activity lost in vitro compared with native insulin (insulin receptor),hydrodynamic size [3]
"PCB-insulin: Conjugate of human recombinant insulin with NHS ester terminated zwitterionic carboxybetaine polymer (~5000 Da), one chain per insulin, prioritized at LysB29",significantly higher blood glucose lowering ability than native insulin,even higher blood glucose lowering ability than native insulin,,,
PEG-insulin: Comparison conjugate of human recombinant insulin with commercially available PEG-NHS (5000 Da),similar,did not show any better glucose lowering effect than native insulin,30%,about 27%,4.2±0.7 nm
